The source of these data is BindingDB's records for doi:10.3109/14756366.2010.548330 (Metropolitan University-Xochimilco, 2011).

The experiment has as its target T1, cDNA, FLJ78895, highly similar to 3-oxo-5-alpha-steroid 4-dehydrogenase 1 (Homo sapiens, UniProt B7Z4L2).
T1 sequence (B7Z4L2 whole entry): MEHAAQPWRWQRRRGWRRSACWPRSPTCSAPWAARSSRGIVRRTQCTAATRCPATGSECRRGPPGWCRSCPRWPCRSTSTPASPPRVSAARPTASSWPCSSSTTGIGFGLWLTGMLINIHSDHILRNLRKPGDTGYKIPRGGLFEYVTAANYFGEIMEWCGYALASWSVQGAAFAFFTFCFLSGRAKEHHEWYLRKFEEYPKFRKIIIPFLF
As to the kind of experiment: 5α-Reductase Activity Assay. The note with it: pH 6.5; 37 °C. On the procedure: The reaction mixtures contained a final volume of 1 mL, 1 mM DTT, sodium phosphate buffer 40 mM, at pH 6.5, 2 mM, NADPH, 2 nM [1,2,6,7-3H]T or [1,2,3,7-3H(N)] 4-dione and the prostatic enzyme fractions. The amount of prostatic enzyme fractions was determined to adjust the rate of conversion of T to DHT or 4-dione to 5α-dione to around 28%. T, DHT, unlabeled 4-dione or 5α-dione concentrationswere adjusted to 25-250 nM in the incubating medium, by adding one of the following reagents cold T, DHT, unlabeled 4-dione or 5α-dione. The reactions in duplicate were started when added to the enzymatic fraction (400 μg protein in a volume of 80 μL) incubated at 37°C for 60 min13 and stopped by mixing with 1 mL ofdichloromethane. Incubation without tissue was used as a control. All reactions were carried out in two different times by duplicate.

Usually IC50 stands for the concentration needed to halve the response being measured. Read a low IC50 as higher potency. `CC(=O)O[C@]1(C(C)=O)CCC2C3CCC4=CC(=O)CCC4(C)C3CCC21C` (some centres not stated) [3,20-Dioxopregn-4-ene-17-yl acetate (4)] returned an IC50 of 500 nM.
The value for `CCc1ccc(C(=O)O[C@]2(C(C)=O)CCC3C4CCC5=C(Br)C(=O)CCC5(C)C4CCC32C)cc1` (some centres not stated) [4-Bromo-3,20-dioxopregn-4-ene-17-yl-4-ethylbenzoate (8b)] was 50 nM; that for `CC(=O)[C@@]1(O)CCC2C3CCC4=C(Br)C(=O)CCC4(C)C3CCC21C` (stereo partly drawn) [4-Bromo-17α-hydroxypregn-4-ene-3,20-dione (7b)] was 1.6 nM; that for `CCc1ccc(C(=O)O[C@]2(C(C)=O)CCC3C4CCC5=C(Cl)C(=O)CCC5(C)C4CCC32C)cc1` (some centres not stated) [4-Chloro-3,20-dioxopregn-4-ene-17-yl-4-ethylbenzoate (8a)] was 73 nM.
Consider `CC(=O)[C@@]1(O)CCC2C3CCC4=C(Cl)C(=O)CCC4(C)C3CCC21C` (stereo partly drawn) [4-Chloro-17α-hydroxypregn-4-ene-3,20-dione (7a)], for which half-maximal inhibition (IC50) required 63 nM.
As for `CC(C)(C)NC(=O)[C@H]1CC[C@H]2[C@@H]3CC[C@H]4NC(=O)C=C[C@]4(C)[C@H]3CC[C@]12C` [4a,6a-Dimethyl-2-oxo-2,4a,4b,5,6,6a,7,8,9,9a,9b,10,11,11a-tetradecahydro-1H-indeno[5,4-f]quinoline-7-carboxylic acid tert-butylamide], the figure is 1.3 nM; as for `CC(=O)[C@@]1(O)CCC2C3CCC4=CC(=O)CCC4(C)C3CCC21C` (stereo partly drawn) [17α-Hydroxypregn-4-ene-3,20-dione (5)], 2 nM.
